Measurements reported in EP2069533B1, “GENE […] FOR IDENTIFICATION, MONITORING AND TREATMENT OF MULTIPLE SCLEROSIS” (Life Technologies Corporation, priority 2006, dated 2008).

Tested on: IL1B
Assay: Whole blood response to E. coli filtrate with or without polymyxin B
Format: cell-based, human
Settings: polymyxin B added to E. coli filtrate
Excerpt: Figs. 27 through 41 illustrate the use of gene expression panels in early identification and monitoring of infectious disease. These figures plot the response, in expression products of the genes indicated, in whole blood, to the administration of various infectious agents or products associated with infectious agents. In each figure, the gene expression levels are "calibrated", as that term is defined herein, in relation to baseline expression levels determined with respect to the whole blood prior to administration of the relevant infectious agent. In this respect the figures are similar in nature to various figures of our below-referenced patent application WO 01/25473 (for example, Fig. 15 therein). The concentration change is shown ratiometrically, and the baseline level of 1 for a particular gene locus corresponds to an expression level for such locus that is the same, monitored at the relevant time after addition of the infectious agent or other stimulus, as the expression level before addition of the stimulus. Ratiometric changes in concentration are plotted on a logarithmic scale. Bars below the unity line represent decreases in concentration and bars above the unity line represent increases in concentration, the magnitude of each bar indicating the magnitude of the ratio of the change. […]
The responses were monitored at 2, 6, and 24 hours after administration. […]

polymyxin B
response of IL1B to E. coli filtrate: did not affect the response
